Values after ≈ are worked out from the molar mass of the structure shown. Read-outs that look alike come from different tables or passages of the source.
Key:
Type in all cases: cell-based
[1] = test system: Staph. aureus; assay: Agar Dilution MIC (Table I); conditions: Staphylococcus aureus, read-out: Agar Dilution MIC
[2] = test system: Staph. epi; assay: Agar Dilution MIC (Table I); conditions: read-out: Agar Dilution MIC
[3] = test system: Strep. A; assay: Agar Dilution MIC (Table I); conditions: strain C203; read-out: Agar Dilution MIC
[4] = test system: Strep. PN; assay: Agar Dilution MIC (Table I); conditions: strain PARK
[5] = test system: Strep. D; assay: Agar Dilution MIC (Table I); conditions: read-out: Agar Dilution MIC
Text: (§1) A typical and preferred compound provided by this invention is 7-(3-benzothienyl)glycylamido-3-methyl-3-cephem-4-carboxylic acid, the compound illustrated in Example 9. The antibacterial activity of this compound has been determined in standard in vitro agar dilution assays against a variety of gram positive and gram negative microorganism. The following Tables present typical minimum inhibitory concentrations (MIC's) in μg/ml for several compounds of the invention when evaluated against the indicated microorganisms. MIC's for several known compounds are also presented for comparison.
Agar Dilution MIC (μg/ml)

[6] = test system: H. influ.; assay: Agar Dilution MIC (Table I); conditions: read-out: Agar Dilution MIC
[7] = test system: E. coli; assay: Agar Dilution MIC (Table I); conditions: Escherichia coli
[8] = test system: Klebsiella; assay: Agar Dilution MIC (Table I); conditions: Klebsiella, read-out: Agar Dilution MIC
[9] = test system: H. influenzae; assay: Expanded Spectrum MIC (Table II); conditions: Haemophilus influenzae
Text: as §1
(§2) Expanded Spectrum MIC (μg/ml)

[10] = test system: Staph. aureus; assay: Expanded Spectrum MIC (Table II); conditions: Staphylococcus aureus
Text: as §1, §2

[11] = test system: Staph. epi; assay: Expanded Spectrum MIC (Table II)
Text: as §1, §2

[12] = test system: Bacteroides corrodens; assay: Susceptibility of Anaerobic Bacteroides Isolates by the Agar-Dilution Method (Table III); conditions: Eikenella corrodens; strain 1874; readings 24 hrs. after incubation
Text: as §1
(§3) Susceptibility of Anaerobic Bacteroides Isolates by the
(§4) Agar-Dilution Method MIC (μg/ml) readings 24 hrs. after incubation

[13] = test system: Bacteroides fragilis; assay: as above; conditions: 24 h
Text: as §1, §3, §4

[14] = test system: Bacteroides thetaiotaomicron; assay: as above; conditions: 24 h
Text: as §1, §3, §4

[15] = strain 9, readings 24 hrs. after incubation
[16] = strain 103, readings 24 hrs. after incubation
[17] = strain 104, readings 24 hrs. after incubation
[18] = strain 106, readings 24 hrs. after incubation
[19] = strain 107, readings 24 hrs. after incubation
[20] = strain 108, readings 24 hrs. after incubation
[21] = strain 110, readings 24 hrs. after incubation
[22] = strain 111, readings 24 hrs. after incubation
[23] = strain 1877, readings 24 hrs. after incubation
[24] = strain 1438, readings 24 hrs. after incubation
[25] = strain 1900A, readings 24 hrs. after incubation

CC1=C(C(=O)O)N2C(=O)C(NC(=O)[C@H](N)c3csc4cc(F)ccc34)C2SC1 (stereo partly drawn) [Ex. 17, D-7-(6-Fluoro-3-benzothienyl)glycylamido-3-methyl-3-cephem-4-carboxylic acid]
MIC ([1]; strain V41): 8 µg/mL (≈ 19 µM)
MIC ([1]; strain X1.1): 1 µg/mL (≈ 2.37 µM)
MIC ([1]; strain X400): 64 µg/mL (≈ 152 µM)
MIC ([2]; strain 222): 2 µg/mL (≈ 4.75 µM)
MIC ([2]; strain EPI1): 4 µg/mL (≈ 9.49 µM)
MIC [3]: 0.125 µg/mL (≈ 0.297 µM)
MIC [4]: 0.5 µg/mL (≈ 1.19 µM)
MIC ([5]; strain 2041): 64 µg/mL (≈ 152 µM)
MIC ([5]; strain X66): 128 µg/mL (≈ 304 µM)
MIC ([6]; strain 76): 0.5 µg/mL (≈ 1.19 µM)
MIC ([6]; strain C.L.): 2 µg/mL (≈ 4.75 µM)
MIC ([7]; strain EC14): 64 µg/mL (≈ 152 µM)
MIC ([7]; strain N10): 128 µg/mL (≈ 304 µM)
MIC ([7]; strain TEM): 64 µg/mL (≈ 152 µM)
MIC ([8]; strain KAE): 128 µg/mL (≈ 304 µM)
MIC ([8]; strain X26): 2 µg/mL (≈ 4.75 µM)
MIC ([8]; strain X68): 128 µg/mL (≈ 304 µM)
MIC ([9]; strain 76): 1 µg/mL (≈ 2.37 µM)
MIC ([9]; strain 105): 0.5 µg/mL (≈ 1.19 µM)
MIC ([9]; strain 158): 0.5 µg/mL (≈ 1.19 µM)
MIC ([9]; strain 164): 0.5 µg/mL (≈ 1.19 µM)
MIC ([9]; strain 169): 1 µg/mL (≈ 2.37 µM)
MIC ([9]; strain 171): 1 µg/mL (≈ 2.37 µM)
MIC ([9]; strain 312): 0.5 µg/mL (≈ 1.19 µM)
MIC ([9]; strain 1683): 0.25 µg/mL (≈ 0.593 µM)
MIC ([9]; strain 1930): 0.5 µg/mL (≈ 1.19 µM)
MIC ([9]; strain 4842): 0.5 µg/mL (≈ 1.19 µM)
MIC ([9]; strain C.L.): 2 µg/mL (≈ 4.75 µM)
MIC ([9]; strain HESS): 1 µg/mL (≈ 2.37 µM)
MIC ([9]; strain M366): 64 µg/mL (≈ 152 µM)
MIC ([9]; strain M370): 0.5 µg/mL (≈ 1.19 µM)
MIC ([9]; strain M371): 0.5 µg/mL (≈ 1.19 µM)
MIC ([9]; strain R465): 64 µg/mL (≈ 152 µM)
MIC ([9]; strain STEL): 64 µg/mL (≈ 152 µM)
MIC ([10]; strain S224): 1 µg/mL (≈ 2.37 µM)
MIC ([10]; strain S225): 1 µg/mL (≈ 2.37 µM)
MIC ([10]; strain S226): 1 µg/mL (≈ 2.37 µM)
MIC ([10]; strain S227): 1 µg/mL (≈ 2.37 µM)
MIC ([10]; strain S228): 0.5 µg/mL (≈ 1.19 µM)
MIC ([10]; strain S229): 1 µg/mL (≈ 2.37 µM)
MIC ([10]; strain S230): 1 µg/mL (≈ 2.37 µM)
MIC ([10]; strain S231): 0.5 µg/mL (≈ 1.19 µM)
MIC ([10]; strain S234): 1 µg/mL (≈ 2.37 µM)
MIC ([10]; strain S237): 1 µg/mL (≈ 2.37 µM)
MIC ([10]; strain S238): 1 µg/mL (≈ 2.37 µM)
MIC ([10]; strain S239): 1 µg/mL (≈ 2.37 µM)
MIC ([11]; strain 219): 0.5 µg/mL (≈ 1.19 µM)
MIC ([11]; strain 269): 2 µg/mL (≈ 4.75 µM)
MIC ([11]; strain 270): 2 µg/mL (≈ 4.75 µM)
MIC ([11]; strain 285): 1 µg/mL (≈ 2.37 µM)
MIC ([11]; strain 286): 0.25 µg/mL (≈ 0.593 µM)
MIC ([11]; strain EPI1): 4 µg/mL (≈ 9.49 µM)
MIC [12]: 16 µg/mL (≈ 38 µM)
MIC [13, 15]: 4 µg/mL (≈ 9.49 µM)
MIC [13, 16]: 16 µg/mL (≈ 38 µM)
MIC [13, 17]: 2 µg/mL (≈ 4.75 µM)
MIC [13, 18]: 4 µg/mL (≈ 9.49 µM)
MIC [13, 19]: 8 µg/mL (≈ 19 µM)
MIC [13, 20]: 4 µg/mL (≈ 9.49 µM)
MIC [13, 21]: 4 µg/mL (≈ 9.49 µM)
MIC [13, 22]: 32 µg/mL (≈ 75.9 µM)
MIC [13, 23]: 8 µg/mL (≈ 19 µM)
MIC [14, 24]: 8 µg/mL (≈ 19 µM)
MIC [14, 25]: 32 µg/mL (≈ 75.9 µM)

CC1=C(C(=O)O)N2C(=O)C(NC(=O)[C@H](N)c3csc4ccc(F)cc34)C2SC1 (stereo partly drawn) [Ex. 18, D-7-(5-Fluoro-3-benzothienyl)glycylamido-3-methyl-3-cephem-4-carboxylic acid]
MIC ([1]; strain V41): 8 µg/mL (≈ 19 µM)
MIC ([1]; strain X1.1): 1 µg/mL (≈ 2.37 µM)
MIC ([1]; strain X400): 64 µg/mL (≈ 152 µM)
MIC ([2]; strain 222): 4 µg/mL (≈ 9.49 µM)
MIC ([2]; strain EPI1): 8 µg/mL (≈ 19 µM)
MIC [3]: 0.25 µg/mL (≈ 0.593 µM)
MIC [4]: 1 µg/mL (≈ 2.37 µM)
MIC ([5]; strain 2041): 128 µg/mL (≈ 304 µM)
MIC ([5]; strain X66): 128 µg/mL (≈ 304 µM)
MIC ([6]; strain 76): 1 µg/mL (≈ 2.37 µM)
MIC ([6]; strain C.L.): 4 µg/mL (≈ 9.49 µM)
MIC ([7]; strain EC14): 64 µg/mL (≈ 152 µM)
MIC ([7]; strain N10): 128 µg/mL (≈ 304 µM)
MIC ([7]; strain TEM): 64 µg/mL (≈ 152 µM)
MIC ([8]; strain KAE): 128 µg/mL (≈ 304 µM)
MIC ([8]; strain X26): 4 µg/mL (≈ 9.49 µM)
MIC ([8]; strain X68): 128 µg/mL (≈ 304 µM)
MIC ([9]; strain 76): 1 µg/mL (≈ 2.37 µM)
MIC ([9]; strain 105): 1 µg/mL (≈ 2.37 µM)
MIC ([9]; strain 158): 1 µg/mL (≈ 2.37 µM)
MIC ([9]; strain 164): 1 µg/mL (≈ 2.37 µM)
MIC ([9]; strain 169): 1 µg/mL (≈ 2.37 µM)
MIC ([9]; strain 171): 1 µg/mL (≈ 2.37 µM)
MIC ([9]; strain 312): 1 µg/mL (≈ 2.37 µM)
MIC ([9]; strain 1683): 0.25 µg/mL (≈ 0.593 µM)
MIC ([9]; strain 1930): 1 µg/mL (≈ 2.37 µM)
MIC ([9]; strain 4842): 1 µg/mL (≈ 2.37 µM)
MIC ([9]; strain C.L.): 2 µg/mL (≈ 4.75 µM)
MIC ([9]; strain HESS): 2 µg/mL (≈ 4.75 µM)
MIC ([9]; strain M366): 64 µg/mL (≈ 152 µM)
MIC ([9]; strain M370): 1 µg/mL (≈ 2.37 µM)
MIC ([9]; strain M371): 1 µg/mL (≈ 2.37 µM)
MIC ([9]; strain R465): 64 µg/mL (≈ 152 µM)
MIC ([9]; strain STEL): 64 µg/mL (≈ 152 µM)
MIC ([10]; strain S224): 1 µg/mL (≈ 2.37 µM)
MIC ([10]; strain S225): 1 µg/mL (≈ 2.37 µM)
MIC ([10]; strain S226): 2 µg/mL (≈ 4.75 µM)
MIC ([10]; strain S227): 2 µg/mL (≈ 4.75 µM)
MIC ([10]; strain S228): 1 µg/mL (≈ 2.37 µM)
MIC ([10]; strain S229): 2 µg/mL (≈ 4.75 µM)
MIC ([10]; strain S230): 1 µg/mL (≈ 2.37 µM)
MIC ([10]; strain S231): 1 µg/mL (≈ 2.37 µM)
MIC ([10]; strain S234): 2 µg/mL (≈ 4.75 µM)
MIC ([10]; strain S237): 2 µg/mL (≈ 4.75 µM)
MIC ([10]; strain S238): 2 µg/mL (≈ 4.75 µM)
MIC ([10]; strain S239): 2 µg/mL (≈ 4.75 µM)
MIC ([11]; strain 219): 1 µg/mL (≈ 2.37 µM)
MIC ([11]; strain 269): 4 µg/mL (≈ 9.49 µM)
MIC ([11]; strain 270): 4 µg/mL (≈ 9.49 µM)
MIC ([11]; strain 285): 2 µg/mL (≈ 4.75 µM)
MIC ([11]; strain 286): 1 µg/mL (≈ 2.37 µM)
MIC ([11]; strain EPI1): 8 µg/mL (≈ 19 µM)
MIC [12]: 64 µg/mL (≈ 152 µM)
MIC [13, 15]: 8 µg/mL (≈ 19 µM)
MIC [13, 16]: 64 µg/mL (≈ 152 µM)
MIC [13, 17]: 16 µg/mL (≈ 38 µM)
MIC [13, 18]: 16 µg/mL (≈ 38 µM)
MIC [13, 19]: 16 µg/mL (≈ 38 µM)
MIC [13, 20]: 16 µg/mL (≈ 38 µM)
MIC [13, 21]: 16 µg/mL (≈ 38 µM)
MIC [13, 22]: 128 µg/mL (≈ 304 µM)
MIC [13, 23]: 16 µg/mL (≈ 38 µM)
MIC [14, 24]: 16 µg/mL (≈ 38 µM)
MIC [14, 25]: 32 µg/mL (≈ 75.9 µM)
